The values below come from publication PMC8805316, “NanoBRET in C. elegans illuminates functional receptor interactions in real time” (BMC Molecular and Cell Biology, 2022).

The target in test [1] is Nluc::NPR-11::eYFP in membranes of transfected HEK293 cells (C. elegans) (UniProt Q18179).
The target of test [2] is T1, Nluc::LAT-1 (Caenorhabditis elegans, UniProt G5EDW2).
T1 construct: Lat-1p::lat-1(1–249)::Nluc::lat-1(250–650)::GFP::lat-1(651–1015); GFP, inserted between residues 650 and 651 (so in the source); expressed in transfected cells; host or cells: transgenic C. elegans (extrachromosomal array, lat-1 knockout background), incised young adult worms
The test is described as follows: biochemical. The class given is binding, C. elegans. Here is the method:
All measurements were conducted using synchronized young adult worms (1 day post L4). Individuals were washed twice with HBSS (Hanks’ balanced salt solution with 25 mM HEPES, pH 7.4, 37 °C) and the number of worms/ μl was calculated.
(§1) For luminescence measurements of intact worms, animals (1; 10; 50; 100 or 500) were directly transferred into the wells of a white flat-bottom 384-well plate in 50 μl HBSS buffer. Worms to be cut were pre-washed with M9 + 0.1% Tween to avoid sticking of worms to the dish and subsequently transferred in 2 ml of HBSS. Incisions were made in the middle of the body with a scalpel blade and worms were immediately afterwards transferred with a glass pipette into HBSS buffer on ice. For mechanically cracking, a worm suspension was homogenized in tubes with 150 μl HBSS and six glass beads (Ø = 3 mm) using with a Precellys homogenizer (Bertin instruments, France) for 40 s at 5000 rpm. Samples were placed on ice until further usage.
For BRET binding assays in vivo, the nanoluciferase (Nluc) was applied as energy donor and either peptides labeled with the TAM fluorophore or the mNeonGreen fluorescent protein fused to a receptor served as acceptor.
30 Nluc-expressing worms with incisions in 50 μl BRET buffer were incubated with dissolving buffer or peptide solutions of final concentrations ranging from 0.05–10 μM in a 384-well plate. During a 25 min incubation with gentle shaking, 10 μl Nano-Glo Live Cell Reagent (N2011, Promega, USA) of a 5x stock were added according to manufacturer’s instructions after 15 min to each well. Competition-binding assays were performed similarly, but additionally, unlabeled peptide (final concentrations 0.016–10 μM) was pipetted into each well and 5 μl of a 10x stock Nano-Glo Live cell reagent was applied after 15 min.
Luminescence (L) and fluorescence (F) were detected with a microplate plate reader (Tecan Spark) using the following filter set: donor = 430–470 nm, acceptor = 550–700 nm with 1000 ms integration time. BRET was calculated by dividing F values by L values. For each experiment, the background signal of donor-only cells was subtracted, such that the BRET ratio at 0 μM ligand equals 0.00. In Fig. 3B (left) and Fig. 3D, the mean of n = 4 (NPR-11) or n = 3 (LAT-1) independent, individually background-corrected single experiments is presented.

Test [3] deals with LAT-1. Nature of the test: cAMP accumulation assay (AlphaScreen), COS-7 cells with LAT-1 plasmid (Fig. S3C). Type of test: cell-based, C. elegans. Conditions: for cAMP conc.: LAT-1 plasmid, 100 μM peptide, mean ± SEM of 5 independent assays, DMSO control 4.66 ± 1.72. The protocol: (§2) All in vitro experiments were carried out using either HEK293 cells (Homo sapiens, embryonic kidney, DSMZ (German Collection of Microorganisms and Cell Cultures) ACC 305) or COS-7 cells (African green monkey, cercopithecus aethiops, kidney, DSMZ (German Collection of Microorganisms and Cell Cultures) ACC 60). HEK293 cells were kept in Dulbecco’s Modified Eagle’s Medium (DMEM) with Ham’s F-12 (v/v) and 15% (v/v) heat-inactivated fetal calf serum (FCS), while COS-7 cells were cultured in DMEM with 10% (v/v) FCS and 1% (v/v) Penicillin-Streptomycin. All cells were kept at 37 °C under a humidified atmosphere (5% CO2).
(§3) Gs-coupling of LAT-1, quantified by detection of intracellular cAMP accumulation, was measured using an AlphaScreen cAMP detection kit (PerkinElmer, USA). Briefly, COS-7 cells (15,000 cells/ well) were transfected in 96-well plates with either 200 ng of LAT-1-encoding plasmid or empty vector using Lipofectamine2000 (ThermoFisher Scientific). 48 h post transfection, the cells were stimulated with 100 μM peptide solution in HBSS containing 1 mM 3-isobutyl-1-methylxanthine (IBMX) and 1% DMSO and control buffer without peptide for 30 min at 37 °C. Subsequently, the medium was displaced with lysis buffer (5 mM HEPES, 0.3% Tween-20, 0.1% BSA, 1 mM IBMX, pH 7.6) and plates were frozen at − 80 °C until further use. The following steps were conducted as stated in the manufactures’ protocol of the AlphaScreen cAMP detection kit (PerkinElmer, USA) and an EnVision plate reader (PerkinElmer, USA) was used to detect the fluorescence. The data were analyzed with GraphPad Prism version 6 (GraphPad Software) are presented in x-fold over the corresponding empty vector control.

The test system of test [4] is empty vector-transfected COS-7 cells. The test is described as follows: cAMP accumulation assay (AlphaScreen), COS-7 cells with empty vector (Fig. S3C). Type of test: cell-based, African green monkey. As to conditions: 100 μM peptide, mean ± SEM of 5 independent assays, DMSO control 5.39 ± 2.15. Here is the method:
as §2
as §3, with “48 h post transfection, the cells were stimulated with 100 μM peptide solution in HBSS containing 1 mM 3-isobutyl-1-methylxanthine (IBMX) and 1% DMSO and control buffer without peptide for 30 min at 37 °C. Subsequently, the medium was displaced with lysis buffer (5 mM HEPES, 0.3% Tween-20, 0.1% BSA, 1 mM IBMX, pH 7.6) and plates were frozen at − 80 °C until further use.” left out

Test [5] concerns Nanoluciferase (Nluc). The test is described as follows: Luminescence of luciferase substrate in cut Nluc-expressing worms (Fig. 1E). Conditions: vs coelenterazine H. Here is the method: as §1
50 prepared worms were transferred into a white flat bottom 384-well plate in a total volume of 50 μl HBSS + 25 mM HEPES (pH 7.4; denoted BRET buffer). Immediately after adding coelenterazine H solution (Nanolight/ Prolume, USA) to a final concentration of 4 μM, luminescence was detected using an EnVision plate reader (PerkinElmer, USA) and a NanoBRET Blue 460/80 nm filter with 1000 ms integration time (five repeats every 5 min for long time observation).

The target in test [6] is Nluc::NPR-11 (Nanoluciferase fused to the extracellular N terminus of the neuropeptide receptor NPR-11), expressed in C. elegans (C. elegans) (UniProt Q18179). The test is described as follows: FRET or BRET; NanoBRET binding in vivo: 30 Nluc-expressing C. elegans (L4 + 1 day) with incisions in 50 μl BRET buffer (HBSS + 25 mM HEPES, pH 7.4), TAM-labeled peptide 0.05-10 μM, 25 min incubation, Nano-Glo Live Cell Reagent (furimazine); Kd from one-site total and nonspecific binding fit with the scrambled peptide as nonspecific.

For test [7] the target is unchanged. The description is as above. This is another data set of the same source.
For test [8], the target named is Nluc::NPR-11::eYFP in membranes of transfected HEK293 cells (C. elegans) (UniProt Q18179). Nature of the test: FRET or BRET; NanoBRET binding in vitro: membranes of HEK293 cells transiently transfected with Nluc::NPR-11::eYFP (0.5 μg total protein), TAM-labeled peptide 10^-12 M to 10^-5 M, BRET buffer with 0.1% BSA and Pefabloc SC, 10 min, room temperature, coelenterazine H 4 μM; three-parameter logistic ….

For test [9], the target named is T2, Nluc::LAT-1 (lat-1p::lat-1(1-249)::Nluc::lat-1(250-650)::GFP::lat-1(651-1015)), expressed in C. elegans (C. elegans, UniProt G5EDW2 28-1014).
T2 sequence (looked up): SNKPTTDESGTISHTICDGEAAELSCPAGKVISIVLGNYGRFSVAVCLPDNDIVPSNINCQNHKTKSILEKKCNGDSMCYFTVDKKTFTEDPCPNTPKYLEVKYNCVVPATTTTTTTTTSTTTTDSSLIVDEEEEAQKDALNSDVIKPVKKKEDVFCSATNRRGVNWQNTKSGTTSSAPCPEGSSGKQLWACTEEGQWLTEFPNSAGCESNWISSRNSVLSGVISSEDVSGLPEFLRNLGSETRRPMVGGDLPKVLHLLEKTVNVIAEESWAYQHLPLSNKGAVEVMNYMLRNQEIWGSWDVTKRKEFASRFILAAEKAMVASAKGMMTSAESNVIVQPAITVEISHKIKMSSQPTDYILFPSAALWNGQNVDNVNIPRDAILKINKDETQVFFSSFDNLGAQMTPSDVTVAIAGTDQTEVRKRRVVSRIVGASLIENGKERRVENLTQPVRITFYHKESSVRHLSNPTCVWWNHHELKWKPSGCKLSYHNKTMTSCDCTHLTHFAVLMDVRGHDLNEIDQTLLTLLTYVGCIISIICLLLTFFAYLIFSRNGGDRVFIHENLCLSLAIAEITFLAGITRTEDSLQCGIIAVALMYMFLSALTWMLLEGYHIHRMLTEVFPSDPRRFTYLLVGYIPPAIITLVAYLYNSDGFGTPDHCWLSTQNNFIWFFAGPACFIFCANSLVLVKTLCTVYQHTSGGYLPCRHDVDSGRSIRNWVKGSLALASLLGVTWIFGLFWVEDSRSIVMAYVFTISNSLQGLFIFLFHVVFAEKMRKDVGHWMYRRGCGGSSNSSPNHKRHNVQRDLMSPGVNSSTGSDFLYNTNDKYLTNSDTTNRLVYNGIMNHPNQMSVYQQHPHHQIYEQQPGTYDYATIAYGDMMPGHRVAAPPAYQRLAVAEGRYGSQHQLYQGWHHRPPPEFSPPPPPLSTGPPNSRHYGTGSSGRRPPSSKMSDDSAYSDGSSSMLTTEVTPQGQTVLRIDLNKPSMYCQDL
Nature of the test: cell-based or functional assay.

“Also recorded” adds a separate entry of the source. Non-standard residues stand in square brackets, D forms with d. Residues, ends and D or L forms follow the SMILES beside them. No end group written: not given here. *: point of attachment. 5TAMRA = CN(C)c1ccc2c(c1)Oc1cc(N(C)C)ccc1C21OC(=O)c2cc(C(=O)*)ccc21; Dap(TAM) = not defined here; Dap = NC[C@H](N)C(=O)O Where only a bound is given, the exact number is not on record here.

Chain of Nluc::NPR-11::eYFP in membranes of transfected HEK293 cells (C. elegans) (Q18179 whole entry): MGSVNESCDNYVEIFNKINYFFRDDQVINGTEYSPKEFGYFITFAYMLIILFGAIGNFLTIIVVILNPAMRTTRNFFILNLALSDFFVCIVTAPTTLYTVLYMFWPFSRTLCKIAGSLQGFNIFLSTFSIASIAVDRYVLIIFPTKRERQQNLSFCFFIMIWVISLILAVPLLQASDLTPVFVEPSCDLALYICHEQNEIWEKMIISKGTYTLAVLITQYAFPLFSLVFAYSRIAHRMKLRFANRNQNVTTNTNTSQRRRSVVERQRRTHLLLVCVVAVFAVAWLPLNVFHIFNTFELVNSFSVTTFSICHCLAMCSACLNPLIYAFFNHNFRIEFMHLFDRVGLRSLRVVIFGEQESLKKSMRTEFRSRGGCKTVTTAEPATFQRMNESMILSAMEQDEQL
Chain of Nluc::NPR-11 (Nanoluciferase fused to the extracellular N terminus of the neuropeptide receptor NPR-11), expressed in C. elegans (C. elegans) (Q18179 whole entry, the tested form may be a part): as the sequence (Q18179 whole entry) above

In test [1], FLP-34-1 (unlabeled) (peptide) gave a cAMP reporter gene assay, forskolin-stimulated HEK293 cells transfected with NPR-11::eYFP (no Nluc): EC50 of NPR-11 activation of 2.3 nM.

In [2], `CSCC[C@H](NC(=O)[C@H](CC(C)C)NC(=O)[C@@H](NC(=O)[C@H](C)NC(=O)[C@H](Cc1ccccc1)NC(=O)[C@H](Cc1c[nH]cn1)NC(=O)[C@@H](N)[C@@H](C)O)C(C)C)C(=O)N[C@@H](CC(=O)O)C(=O)N[C@H](C(=O)N[C@@H](CCCNC(=N)N)C(=O)NCC(=O)N[C@@H](Cc1c[nH]cn1)C(=O)N[C@@H](CNC(=O)c1ccc2c(c1)C(=O)OC21c2ccc(N(C)C)cc2Oc2cc(N(C)C)ccc21)C(=O)O)C(C)C` [TAM-pLAT-1] (H-THFAVLMDVRGH[Dap](5TAMRA)-OH) registered a dissociation constant Kd greater than 10000 nM. Besides, the “cAMP accumulation over control” value in [3] (100 μM, 30 min, 37 °C, IBMX) is 1.5 -fold. Also, the figures for the cAMP conc. in [3] and in test [4] were 3.69 ± 0.70 nM and 2.86 ± 0.60 nM, respectively.

Regarding `O=c1c(Cc2ccco2)nc2c(Cc3ccccc3)[nH]c(-c3ccccc3)cn1-2` [furimazine], in test [5], the “luminescence signal over time” value is listed as “stable values over the entire time period; also recorded: lower but more stable luminescence signal”.

`CSCC[C@H](N)C(=O)N[C@@H](CC(=O)O)C(=O)N[C@H](C(=O)N[C@@H](CCCNC(=N)N)C(=O)N[C@@H](C)C(=O)N[C@H](C(=O)N[C@@H](Cc1c[nH]cn1)C(=O)N[C@@H](Cc1c[nH]cn1)C(=O)NCC(=O)N[C@H](C(=O)N[C@@H](CC(C)C)C(=O)N[C@@H](Cc1ccccc1)C(=O)N[C@@H](CNC(=O)c1ccc2c(c1)C(=O)OC21c2ccc(N(C)C)cc2Oc2cc(N(C)C)ccc21)C(=O)O)C(C)C)C(C)C)[C@@H](C)O` [TAM-scrpLAT-1] (H-MDTRAVHHGVLF[Dap](5TAMRA)-OH) gave a Kd in test [2] greater than 10000 nM. Moreover, the “BRET ratio relative to TAM-pLAT-1” value in test [2] (at 10 μM) is reported as “one-third higher”. In addition, in test [3] (100 μM), the “cAMP accumulation / receptor activation” value is given as “did not lead to a cAMP accumulation; also recorded: does not activate the receptor”. For the same molecule, the cAMP conc. in test [3] was found to be 4.63 ± 0.81 nM; in test [4], 4.45 ± 0.71 nM.

“TAM-FLP-34-1 (tetramethylrhodamine-labeled FLP-34-1) (peptide)”: in [6], the increase in the BRET ratio at 10 μM stood at 0.08. Besides, the figures for the Kd in test [7] and in test [8] were 1500 nM and 388 nM, respectively. Moreover, the cAMP reporter gene assay, forskolin-stimulated HEK293 cells transfected with NPR-11::eYFP (no Nluc): EC50 of NPR-11 activation in test [1] amounted to 0.5 nM.

B1: TAM-pLAT-1 (TAM-labeled synthetic peptide derived from the tethered agonist sequence of LAT-1) (peptide)
chain: THFAVLMDVRGH-{Dap(TAM)}
modifications: reading uncertain
For B1, in test [9], the “cAMP accumulation (AlphaScreen) in COS-7 cells transfected with a LAT-1-encoding plasmid, 100 μM peptide” value came out at 1.5 fold over control.
